From PubChem BioAssay (NCI)
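Here, GI50 denotes the concentration required for 50% inhibition of growth. At the TGI there is no net growth.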

Tests used:
Assay in all cases: growth of human tumour cells (NCI), 384-well format
[1] = system: SK-MEL-5 melanoma
[2] = system: 786-0 renal
[3] = system: MDA-MB-468 breast
[4] = system: NCI-H226 lung
[5] = system: HS 578T breast
[6] = system: NCI-H23 lung
[7] = system: A549 NSCLC
[8] = system: RXF 393 renal
[9] = system: SF-295 CNS
[10] = system: OVCAR-4 ovarian
[11] = system: SR leukemia
[12] = system: SF-539 CNS
[13] = system: MALME-3M melanoma
[14] = system: MDA-MB-231 breast
[15] = system: TK-10 renal
[16] = system: COLO 205 colon
[17] = system: EKVX NSCLC
[18] = system: A498 renal
[19] = system: KM12 colon
[20] = system: HT29 colon
[21] = system: CAKI-1 renal
[22] = system: HOP-92 NSCLC
[23] = system: UACC-257 melanoma
[24] = system: OVCAR-8 ovarian
[25] = system: IGROV1 ovarian
[26] = system: NCI-H322M lung
[27] = system: HL-60(TB) leukemia
[28] = system: MOLT-4 leukemia
[29] = system: OVCAR-3 ovarian
[30] = system: T-47D breast
[31] = system: BT-549 breast
[32] = system: SW-620 colon
[33] = system: M14 melanoma
[34] = system: NCI-H522 lung
[35] = system: SK-MEL-28 melanoma
[36] = system: NCI-H460 NSCLC
[37] = system: MCF7 breast
[38] = system: K-562 leukemia
[39] = system: DU-145 prostate
[40] = system: ACHN renal
[41] = system: SNB-19 CNS
[42] = system: HOP-62 NSCLC
[43] = system: PC-3 prostate
[44] = system: MDA-MB-435 melanoma
[45] = system: UACC-62 melanoma
[46] = system: UO-31 renal
[47] = system: HCT-116 colon
[48] = system: SK-OV-3 ovarian
[49] = system: SN12C renal
[50] = system: SF-268 CNS
[51] = system: U251 glioblastoma
[52] = system: HCT-15 colon
[53] = system: OVCAR-5 ovarian
[54] = system: SNB-75 CNS
[55] = system: SK-MEL-2 melanoma

SMILES: N#Cc1ncc(N2C(=O)C3(CCC3)N(c3ccc(OC4CCNCC4)nc3)C2=S)cc1C(F)(F)F
- GI50 [1]: 11.8 µM
- TGI [1]: 24.1 µM
- GI50 [2]: 12 µM
- TGI [2]: 24.4 µM
- GI50 [3]: 10.6 µM
- TGI [3]: 22.4 µM
- GI50 [4]: 8.62 µM
- TGI [4]: 20.7 µM
- GI50 [5]: 11.5 µM
- TGI [5]: 23.6 µM
- GI50 [6]: 11 µM
- TGI [6]: 23 µM
- GI50 [7]: 16.7 µM
- TGI [7]: 30.5 µM
- GI50 [8]: 2.63 µM
- TGI [8]: 7.32 µM
- GI50 [9]: 18.6 µM
- TGI [9]: 32.6 µM
- GI50 [10]: 13.6 µM
- TGI [10]: 26.5 µM
- GI50 [11]: 1.9 µM
- TGI [11]: 3.91 µM
- GI50 [12]: 12.4 µM
- TGI [12]: 24.9 µM
- GI50 [13]: 2.68 µM
- TGI [13]: 6.23 µM
- GI50 [14]: 16.1 µM
- TGI [14]: 29.6 µM
- GI50 [15]: 7.64 µM
- TGI [15]: 20.1 µM
- GI50 [16]: 15.1 µM
- TGI [16]: 28.4 µM
- GI50 [17]: 10.2 µM
- TGI [17]: 22 µM
- GI50 [18]: 10.8 µM
- TGI [18]: 22.7 µM
- GI50 [19]: 17.1 µM
- TGI [19]: 30.9 µM
- GI50 [20]: 2.88 µM
- TGI [20]: 8.52 µM
- GI50 [21]: 5.96 µM
- TGI [21]: 18.3 µM
- GI50 [22]: 12.7 µM
- TGI [22]: 25.4 µM
- GI50 [23]: 1.99 µM
- TGI [23]: 3.79 µM
- GI50 [24]: 14.5 µM
- TGI [24]: 27.7 µM
- GI50 [25]: 14.4 µM
- TGI [25]: 27.7 µM
- GI50 [26]: 17.9 µM
- TGI [26]: 32.5 µM
- GI50 [27]: 3.75 µM
- TGI [27]: 15.8 µM
- GI50 [28]: 10.1 µM
- TGI [28]: 21.7 µM
- GI50 [29]: 14 µM
- TGI [29]: 27.1 µM
- GI50 [30]: 8.96 µM
- TGI [30]: 21.1 µM
- GI50 [31]: 11.1 µM
- TGI [31]: 23.1 µM
- GI50 [32]: 14.5 µM
- TGI [32]: 27.8 µM
- GI50 [33]: 3 µM
- TGI [33]: 8.44 µM
- GI50 [34]: 17.5 µM
- TGI [34]: 31.3 µM
- GI50 [35]: 2.32 µM
- TGI [35]: 5.21 µM
- GI50 [36]: 11.2 µM
- TGI [36]: 23.4 µM
- GI50 [37]: 4.76 µM
- TGI [37]: 16.6 µM
- GI50 [38]: 4.27 µM
- TGI [38]: 16.1 µM
- GI50 [39]: 14.5 µM
- TGI [39]: 27.9 µM
- GI50 [40]: 15.3 µM
- TGI [40]: 28.7 µM
- GI50 [41]: 19.1 µM
- TGI [41]: 35.3 µM
- GI50 [42]: 20.9 µM
- TGI [42]: 35.3 µM
- GI50 [43]: 14.4 µM
- TGI [43]: 27.5 µM
- GI50 [44]: 13.4 µM
- TGI [44]: 26.3 µM
- GI50 [45]: 2.03 µM
- TGI [45]: 3.93 µM
- GI50 [46]: 14.7 µM
- TGI [46]: 27.9 µM
- GI50 [47]: 8.22 µM
- TGI [47]: 20.7 µM
- GI50 [48]: 18.1 µM
- TGI [48]: 32.2 µM
- GI50 [49]: 15.5 µM
- TGI [49]: 28.9 µM
- GI50 [50]: 13.4 µM
- TGI [50]: 26.3 µM
- GI50 [51]: 17.2 µM
- TGI [51]: 31 µM
- GI50 [52]: 5.19 µM
- TGI [52]: 16.6 µM
- GI50 [53]: 13.8 µM
- TGI [53]: 27 µM
- GI50 [54]: 14.5 µM
- TGI [54]: 27.7 µM
- GI50 [55]: 5.98 µM
- TGI [55]: 17.9 µM
